Experimental data reported in ChEMBL document CHEMBL1629559, “Real-time PCR detection of gyrA and parC mutations in Streptococcus pneumoniae” (2008).
Values after ≈ are worked out from the molar mass of the structure shown.

Key:
[1] = tested on: Streptococcus pneumoniae; experiment: Antibacterial activity against Streptococcus pneumoniae U2A1686 harboring gyrA Glu85Lys mutant gene by agar dilution method; assay type: functional
[2] = tested on: Streptococcus pneumoniae; experiment: Antibacterial activity against Streptococcus pneumoniae CIP104485 by agar disk diffusion method; assay type: functional, CIP1044
[3] = tested on: Streptococcus pneumoniae; experiment: Antibacterial activity against Streptococcus pneumoniae U2A1411 harboring parC Asp83Gly mutant gene by agar disk diffusion method; assay type: functional
[4] = tested on: Streptococcus pneumoniae; experiment: Antibacterial activity against Streptococcus pneumoniae U2A1266 harboring gyrA Ser81Cys mutant gene by agar dilution method; assay type: functional
[5] = tested on: Streptococcus pneumoniae; experiment: Antibacterial activity against Streptococcus pneumoniae U2A1681 harboring parC Ser79Tyr Asp83Ala mutant gene by agar disk diffusion method; assay type: functional
[6] = tested on: Streptococcus pneumoniae; experiment: Antibacterial activity against Streptococcus pneumoniae U2A1411 harboring parC Asp83Gly mutant gene by agar dilution method; assay type: functional
[7] = tested on: Streptococcus pneumoniae; experiment: Antibacterial activity against Streptococcus pneumoniae CP1000 by agar dilution method; assay type: functional
[8] = tested on: Streptococcus pneumoniae; experiment: Antibacterial activity against Streptococcus pneumoniae U2A1693 harboring parC Asp83Asn mutant gene by agar disk diffusion method; assay type: functional
[9] = tested on: Streptococcus pneumoniae; experiment: Antibacterial activity against Streptococcus pneumoniae CIP104485 by agar dilution method; assay type: functional; conditions: CIP1044
[10] = tested on: Streptococcus pneumoniae; experiment: Antibacterial activity against Streptococcus pneumoniae U2A1050 harboring gyrA Ser81Phe mutant gene by agar dilution method; assay type: functional
[11] = tested on: Streptococcus pneumoniae; experiment: Antibacterial activity against Streptococcus pneumoniae U2A1050 harboring gyrA Ser81Phe mutant gene by agar disk diffusion method; assay type: functional
[12] = tested on: Streptococcus pneumoniae; experiment: Antibacterial activity against Streptococcus pneumoniae U2A1060 harboring gyrA Ser81Phe parC Asp83His mutant gene by agar disk diffusion method; assay type: functional
[13] = tested on: Streptococcus pneumoniae; experiment: Antibacterial activity against Streptococcus pneumoniae R6 Tr10 harboring gyrA Ser81Tyr parC Ser79Tyr mutant gene by agar disk diffusion method; assay type: functional
[14] = tested on: Streptococcus pneumoniae; experiment: Antibacterial activity against Streptococcus pneumoniae R6 Tr10 harboring gyrA Ser81Tyr parC Ser79Tyr mutant gene by agar dilution method; assay type: functional
[15] = tested on: Streptococcus pneumoniae; experiment: Antibacterial activity against Streptococcus pneumoniae U2A1681 harboring parC Ser79Tyr Asp83Ala mutant gene by agar dilution method; assay type: functional
[16] = tested on: Streptococcus pneumoniae; experiment: Antibacterial activity against Streptococcus pneumoniae U2A1414 harboring gyrA Glu85Lys parC Ser79Phe mutant gene by agar dilution method; assay type: functional
[17] = tested on: Streptococcus pneumoniae; experiment: Antibacterial activity against Streptococcus pneumoniae H548 clinical isolate harboring gyrA Ser81Phe mutant gene by agar disk diffusion method; assay type: functional
[18] = tested on: Streptococcus pneumoniae; experiment: Antibacterial activity against Streptococcus pneumoniae U2A1413 harboring parC Ser79Tyr mutant gene by agar disk diffusion method; assay type: functional
[19] = tested on: Streptococcus pneumoniae; experiment: Antibacterial activity against Streptococcus pneumoniae R6 Tr6 harboring gyrA Ser81Phe mutant gene by agar disk diffusion method; assay type: functional
[20] = tested on: Streptococcus pneumoniae; experiment: Antibacterial activity against Streptococcus pneumoniae U2A1686 harboring gyrA Glu85Lys mutant gene by agar disk diffusion method; assay type: functional
[21] = tested on: Streptococcus pneumoniae; experiment: Antibacterial activity against Streptococcus pneumoniae R6 Tr6 harboring gyrA Ser81Phe mutant gene by agar dilution method; assay type: functional
[22] = tested on: Streptococcus pneumoniae; experiment: Antibacterial activity against Streptococcus pneumoniae R6 Tr1 harboring parC Ser79Tyr mutant gene by agar dilution method; assay type: functional
[23] = tested on: Streptococcus pneumoniae; experiment: Antibacterial activity against Streptococcus pneumoniae U2A1060 harboring gyrA Ser81Phe parC Asp83His mutant gene by agar dilution method; assay type: functional
[24] = tested on: Streptococcus pneumoniae; experiment: Antibacterial activity against Streptococcus pneumoniae U2A1053 harboring parC Ser79Phe mutant gene by agar disk diffusion method; assay type: functional
[25] = tested on: Streptococcus pneumoniae; experiment: Antibacterial activity against Streptococcus pneumoniae U2A1413 harboring parC Ser79Tyr mutant gene by agar dilution method; assay type: functional
[26] = tested on: Streptococcus pneumoniae; experiment: Antibacterial activity against Streptococcus pneumoniae CP1000 by agar disk diffusion method; assay type: functional
[27] = tested on: Streptococcus pneumoniae; experiment: Antibacterial activity against Streptococcus pneumoniae U2A1266 harboring gyrA Ser81Cys mutant gene by agar disk diffusion method; assay type: functional
[28] = tested on: Streptococcus pneumoniae; experiment: Antibacterial activity against Streptococcus pneumoniae U2A1056 harboring gyrA Ser81Tyr parC Asp83His mutant gene by agar disk diffusion method; assay type: functional
[29] = tested on: Streptococcus pneumoniae; experiment: Antibacterial activity against Streptococcus pneumoniae U2A1051 harboring gyrA Ser81Tyr mutant gene by agar dilution method; assay type: functional
[30] = tested on: Streptococcus pneumoniae; experiment: Antibacterial activity against Streptococcus pneumoniae U2A1693 harboring parC Asp83Asn mutant gene by agar dilution method; assay type: functional
[31] = tested on: Streptococcus pneumoniae; experiment: Antibacterial activity against Streptococcus pneumoniae U2A1051 harboring gyrA Ser81Tyr mutant gene by agar disk diffusion method; assay type: functional
[32] = tested on: Streptococcus pneumoniae; experiment: Antibacterial activity against Streptococcus pneumoniae H548 clinical isolate harboring gyrA Ser81Phe mutant gene by agar dilution method; assay type: functional
[33] = tested on: Streptococcus pneumoniae; experiment: Antibacterial activity against Streptococcus pneumoniae U2A1056 harboring gyrA Ser81Tyr parC Asp83His mutant gene by agar dilution method; assay type: functional
[34] = tested on: Streptococcus pneumoniae; experiment: Antibacterial activity against Streptococcus pneumoniae U2A1053 harboring parC Ser79Phe mutant gene by agar dilution method; assay type: functional
[35] = tested on: Streptococcus pneumoniae; experiment: Antibacterial activity against Streptococcus pneumoniae R6 Tr1 harboring parC Ser79Tyr mutant gene by agar disk diffusion method; assay type: functional
[36] = tested on: Streptococcus pneumoniae; experiment: Antibacterial activity against Streptococcus pneumoniae R6 by agar disk diffusion method; assay type: functional
[37] = tested on: Streptococcus pneumoniae; experiment: Antibacterial activity against Streptococcus pneumoniae U2A1414 harboring gyrA Glu85Lys parC Ser79Phe mutant gene by agar disk diffusion method; assay type: functional
[38] = tested on: Streptococcus pneumoniae; experiment: Antibacterial activity against Streptococcus pneumoniae R6 by agar dilution method; assay type: functional

CCn1cc(C(=O)O)c(=O)c2cc(F)c(N3CCNCC3)cc21 [NORFLOXACIN]
MIC [1]: 4 µg/mL (≈ 12.5 µM)
diameter of the inhibition zone (DIZ) [2]: 19 mm
diameter of the inhibition zone (DIZ) [3]: 6 mm
MIC [4]: 8 µg/mL (≈ 25.1 µM)
diameter of the inhibition zone (DIZ) [5]: 6 mm
MIC [6]: 256 µg/mL (≈ 802 µM)
MIC [7]: 4 µg/mL (≈ 12.5 µM)
diameter of the inhibition zone (DIZ) [8]: 6 mm
MIC [9]: 4 µg/mL (≈ 12.5 µM)
MIC [10]: 8 µg/mL (≈ 25.1 µM)
diameter of the inhibition zone (DIZ) [11]: 16 mm
diameter of the inhibition zone (DIZ) [12]: 6 mm
diameter of the inhibition zone (DIZ) [13]: 6 mm
MIC [14]: 128 µg/mL (≈ 401 µM)
MIC [15]: 256 µg/mL (≈ 802 µM)
MIC [16]: 256 µg/mL (≈ 802 µM)
diameter of the inhibition zone (DIZ) [17]: 6 mm
diameter of the inhibition zone (DIZ) [18]: 6 mm
diameter of the inhibition zone (DIZ) [19]: 18 mm
diameter of the inhibition zone (DIZ) [20]: 22 mm
MIC [21]: 4 µg/mL (≈ 12.5 µM)
MIC [22]: 64 µg/mL (≈ 200 µM)
MIC [23]: 256 µg/mL (≈ 802 µM)
diameter of the inhibition zone (DIZ) [24]: 6 mm
MIC [25]: 32 µg/mL (≈ 100 µM)
diameter of the inhibition zone (DIZ) [26]: 21 mm
diameter of the inhibition zone (DIZ) [27]: 13 mm
diameter of the inhibition zone (DIZ) [28]: 6 mm
MIC [29]: 8 µg/mL (≈ 25.1 µM)
MIC [30]: 64 µg/mL (≈ 200 µM)
diameter of the inhibition zone (DIZ) [31]: 18 mm
MIC [32]: 32 µg/mL (≈ 100 µM)
MIC [33]: 128 µg/mL (≈ 401 µM)
MIC [34]: 64 µg/mL (≈ 200 µM)
diameter of the inhibition zone (DIZ) [35]: 6 mm
diameter of the inhibition zone (DIZ) [36]: 19 mm
diameter of the inhibition zone (DIZ) [37]: 6 mm
MIC [38]: 4 µg/mL (≈ 12.5 µM)
